Test systems include 786-0 renal; A498 renal; CAKI-1 renal; HCT-116 colon; HL-60(TB) leukemia; NCI-H522 lung; OVCAR-4 ovarian; T-47D breast; U251 CNS; UACC-257 melanoma.
Common to all, as to assay: DTP human tumour cell line panel, 48 h

Several values for one entry are separate records, joined by “and”; a condition that tells them apart may be missing. Identical values can stand only once.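 A five-concentration, 48-hour dose response in 96-well plates underlies each endpoint, interpolated linearly between surrounding concentrations. GI50: concentration for 50% inhibition of growth. TGI: total growth inhibition.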

Among the data in PubChem BioAssay (NCI) are TGI and GI50 values, retold here.

Usually TGI stands for the concentration giving total growth inhibition. Low readings indicate greater sensitivity of the cells, high ones lower sensitivity of the cells. The GI50 is the concentration giving 50% growth inhibition.

On to `COc1c(Cl)ccc(Cl)c1-c1nnc(-c2c(Cl)c(Cl)c(Cl)c(Cl)c2-c2nc3ccc(C(=O)c4ccccc4)cc3[nH]2)o1`, for which the TGI in the assay on 786-0 renal is > 100 µM; with A498 renal, 85.5 µM; in the assay on CAKI-1 renal it was > 100 µM; in the assay on HCT-116 colon, > 100 µM; in the assay on HL-60(TB) leukemia, > 100 µM; in the assay with NCI-H522 lung, > 100 µM. In addition, the concentration for total growth inhibition (TGI) with OVCAR-4 ovarian, in the assay on T-47D breast, in the assay on U251 CNS and in the assay with UACC-257 melanoma was > 100 µM in each case.

Turning to `O=c1[nH]nc(Nc2ccccc2)c2nnn(Cc3ccccc3)c12`, the TGI in the assay on 786-0 renal, with A498 renal, in the assay with CAKI-1 renal, in the assay on HCT-116 colon, with HL-60(TB) leukemia and in the assay on NCI-H522 lung was > 100 µM in each case. The TGI with OVCAR-4 ovarian, in the assay with T-47D breast, in the assay with U251 CNS and in the assay on UACC-257 melanoma was > 100 µM in each case.

For `S=c1sc2ccccc2n1CN1CCN(Cc2ccccc2)CC1`, the TGI in the assay with 786-0 renal, in the assay on A498 renal, in the assay on CAKI-1 renal, with HCT-116 colon, in the assay on HL-60(TB) leukemia and in the assay on NCI-H522 lung was > 100 µM each time. Besides, the concentration for total growth inhibition (TGI) in the assay on OVCAR-4 ovarian, with T-47D breast, with U251 CNS and with UACC-257 melanoma was > 100 µM throughout.

Consider `CC1CCC(O)/C=C/C(=O)OC(C)C(O)/C=C/C(=O)O1` (stereo not drawn), for which the TGI in the assay with 786-0 renal was > 100 µM; in the assay on A498 renal, > 100 µM; in the assay with CAKI-1 renal, > 100 µM; in the assay with HCT-116 colon, > 100 µM; in the assay on HL-60(TB) leukemia it was > 79.5 µM; in the assay with NCI-H522 lung, > 58.6 µM. Besides, the TGI in the assay with OVCAR-4 ovarian, in the assay with T-47D breast, in the assay on U251 CNS and in the assay on UACC-257 melanoma was > 100 µM in each case.

As for `NC1=CN2c3ccccc3N(CC(=O)N3CCOCC3)C2C=C1` (stereo not drawn), the TGI in the assay with 786-0 renal, in the assay on A498 renal, with CAKI-1 renal, in the assay on HCT-116 colon, with HL-60(TB) leukemia and in the assay with NCI-H522 lung was > 100 µM in each case. The TGI in the assay with OVCAR-4 ovarian, with T-47D breast, in the assay on U251 CNS and in the assay on UACC-257 melanoma was > 100 µM in each case.

On to `Cc1cc(S(=O)(=O)Nc2nc(N)n(-c3ccccc3)n2)c(S)cc1Cl`, for which the TGI in the assay on 786-0 renal, with A498 renal, with CAKI-1 renal, with HCT-116 colon, in the assay on HL-60(TB) leukemia and with NCI-H522 lung was > 100 µM each time. The TGI in the assay with OVCAR-4 ovarian, in the assay with T-47D breast, with U251 CNS and in the assay on UACC-257 melanoma was > 100 µM each time.

Consider `COC(=O)c1ccc2c(c1)CCN2C(=O)c1cc2c(cc1Br)OCO2`, for which the TGI with 786-0 renal is 27.4 µM and > 100 µM; with A498 renal it was 30.8 µM and > 100 µM; in the assay with CAKI-1 renal it was 50 µM and > 100 µM; with HL-60(TB) leukemia it was 10.2 µM and 17.1 µM; with NCI-H522 lung, 0.4 µM and 0.29 µM; in the assay on OVCAR-4 ovarian, 50 µM and > 100 µM. Moreover, the TGI was 50 µM and 51.9 µM in the assay with T-47D breast; 5.12 µM and 20.6 µM with U251 CNS; 18.8 µM and 75.1 µM with UACC-257 melanoma. Besides, the GI50 in the assay with A498 renal is 2.62 µM; in the assay on CAKI-1 renal, 0.953 µM; in the assay with HCT-116 colon, 0.677 µM; in the assay with HL-60(TB) leukemia, 0.31 µM; in the assay on NCI-H522 lung, 0.0801 µM; in the assay with OVCAR-4 ovarian, 4.88 µM. Moreover, the GI50 in the assay with T-47D breast is 0.982 µM; in the assay on U251 CNS, 0.512 µM; in the assay with UACC-257 melanoma, 16.6 µM.

Consider `O=C(/C=C/c1ccccc1O)CC(=O)/C=C/c1ccccc1O`, for which the TGI in the assay on 786-0 renal amounted to 16.1 µM; in the assay with A498 renal, 51.3 µM; in the assay with CAKI-1 renal, 29.9 µM; with HCT-116 colon, 7.42 µM; in the assay with HL-60(TB) leukemia it was 9.87 µM; with NCI-H522 lung it was 9.83 µM. Further, the TGI in the assay on OVCAR-4 ovarian is > 88.1 µM; in the assay on T-47D breast it was > 31.6 µM; with U251 CNS it was 13 µM; with UACC-257 melanoma, 18.7 µM.
